Results from ChEMBL document CHEMBL5729772, “MYST family histone acetyltransferase inhibitors” (2023).

Columns and labels:
[1] = molecular target: Histone acetyltransferase KAT5 (Homo sapiens, UniProt Q92993); experiment: (§1) KAT-5 Enzyme Assay: Enzyme assay buffer was 50 mM Tris pH 8.0, 0.002% Tween20, 0.005% bovine skin gelatin, and 1 mM dithiothreitol (DTT). For determination of IC50values, compounds were serially diluted with 2% (v/v) DMSO in the final reaction, pre-incubating each dilution of each compound with 40 μL of assay buffer containing KAT-5 enzyme (9 nM final concentration). 10 μL of assay buffer containing 1 μM peptide substrate and 0.5 μM acetyl coenzyme A (final concentrations) was added. Reactions (50 μL total) were then carried out at 25° C. for 90 minutes. Reactions were terminated by the addition of 0.5% formic acid (final concentration), and a sample of each reaction was analyzed by SAMDI Tech, Inc. (Chicago, Ill.) using self-assembled monolayer desorption/ionization time-of-flight mass spectrometry (Mrksich, M. (2008) Mass spectrometry of self-assembled monolayers: a new tool for molecular surface science. ACS Nano 2, 7-18).
Histone acetyltransferase KAT5, sequence (Q92993 whole entry): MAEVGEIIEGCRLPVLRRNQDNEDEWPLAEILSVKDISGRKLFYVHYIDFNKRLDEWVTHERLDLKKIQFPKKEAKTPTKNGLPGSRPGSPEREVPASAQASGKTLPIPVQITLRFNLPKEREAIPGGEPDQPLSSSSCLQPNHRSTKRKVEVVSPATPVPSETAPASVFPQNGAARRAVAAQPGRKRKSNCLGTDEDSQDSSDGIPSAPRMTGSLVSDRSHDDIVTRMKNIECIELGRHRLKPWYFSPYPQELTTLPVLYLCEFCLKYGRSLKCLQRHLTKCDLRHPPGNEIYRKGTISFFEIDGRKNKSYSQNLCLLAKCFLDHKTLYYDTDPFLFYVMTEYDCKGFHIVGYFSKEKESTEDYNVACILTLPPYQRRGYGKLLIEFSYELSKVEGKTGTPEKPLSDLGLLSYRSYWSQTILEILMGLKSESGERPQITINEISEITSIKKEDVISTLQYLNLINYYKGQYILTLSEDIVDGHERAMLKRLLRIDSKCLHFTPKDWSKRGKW

[2] = molecular target: Histone acetyltransferase KAT6A (Homo sapiens, UniProt Q92794); experiment: as §1, with “KAT-6A Enzyme” for “KAT-5 Enzyme”, “Assay: KAT-6A.” for “Assay:”, “containing KAT-6A” for “containing KAT-5”, “enzyme (12.5” for “enzyme (9”, “and 1” for “and 0.5”
Histone acetyltransferase KAT6A, sequence (Q92794 whole entry): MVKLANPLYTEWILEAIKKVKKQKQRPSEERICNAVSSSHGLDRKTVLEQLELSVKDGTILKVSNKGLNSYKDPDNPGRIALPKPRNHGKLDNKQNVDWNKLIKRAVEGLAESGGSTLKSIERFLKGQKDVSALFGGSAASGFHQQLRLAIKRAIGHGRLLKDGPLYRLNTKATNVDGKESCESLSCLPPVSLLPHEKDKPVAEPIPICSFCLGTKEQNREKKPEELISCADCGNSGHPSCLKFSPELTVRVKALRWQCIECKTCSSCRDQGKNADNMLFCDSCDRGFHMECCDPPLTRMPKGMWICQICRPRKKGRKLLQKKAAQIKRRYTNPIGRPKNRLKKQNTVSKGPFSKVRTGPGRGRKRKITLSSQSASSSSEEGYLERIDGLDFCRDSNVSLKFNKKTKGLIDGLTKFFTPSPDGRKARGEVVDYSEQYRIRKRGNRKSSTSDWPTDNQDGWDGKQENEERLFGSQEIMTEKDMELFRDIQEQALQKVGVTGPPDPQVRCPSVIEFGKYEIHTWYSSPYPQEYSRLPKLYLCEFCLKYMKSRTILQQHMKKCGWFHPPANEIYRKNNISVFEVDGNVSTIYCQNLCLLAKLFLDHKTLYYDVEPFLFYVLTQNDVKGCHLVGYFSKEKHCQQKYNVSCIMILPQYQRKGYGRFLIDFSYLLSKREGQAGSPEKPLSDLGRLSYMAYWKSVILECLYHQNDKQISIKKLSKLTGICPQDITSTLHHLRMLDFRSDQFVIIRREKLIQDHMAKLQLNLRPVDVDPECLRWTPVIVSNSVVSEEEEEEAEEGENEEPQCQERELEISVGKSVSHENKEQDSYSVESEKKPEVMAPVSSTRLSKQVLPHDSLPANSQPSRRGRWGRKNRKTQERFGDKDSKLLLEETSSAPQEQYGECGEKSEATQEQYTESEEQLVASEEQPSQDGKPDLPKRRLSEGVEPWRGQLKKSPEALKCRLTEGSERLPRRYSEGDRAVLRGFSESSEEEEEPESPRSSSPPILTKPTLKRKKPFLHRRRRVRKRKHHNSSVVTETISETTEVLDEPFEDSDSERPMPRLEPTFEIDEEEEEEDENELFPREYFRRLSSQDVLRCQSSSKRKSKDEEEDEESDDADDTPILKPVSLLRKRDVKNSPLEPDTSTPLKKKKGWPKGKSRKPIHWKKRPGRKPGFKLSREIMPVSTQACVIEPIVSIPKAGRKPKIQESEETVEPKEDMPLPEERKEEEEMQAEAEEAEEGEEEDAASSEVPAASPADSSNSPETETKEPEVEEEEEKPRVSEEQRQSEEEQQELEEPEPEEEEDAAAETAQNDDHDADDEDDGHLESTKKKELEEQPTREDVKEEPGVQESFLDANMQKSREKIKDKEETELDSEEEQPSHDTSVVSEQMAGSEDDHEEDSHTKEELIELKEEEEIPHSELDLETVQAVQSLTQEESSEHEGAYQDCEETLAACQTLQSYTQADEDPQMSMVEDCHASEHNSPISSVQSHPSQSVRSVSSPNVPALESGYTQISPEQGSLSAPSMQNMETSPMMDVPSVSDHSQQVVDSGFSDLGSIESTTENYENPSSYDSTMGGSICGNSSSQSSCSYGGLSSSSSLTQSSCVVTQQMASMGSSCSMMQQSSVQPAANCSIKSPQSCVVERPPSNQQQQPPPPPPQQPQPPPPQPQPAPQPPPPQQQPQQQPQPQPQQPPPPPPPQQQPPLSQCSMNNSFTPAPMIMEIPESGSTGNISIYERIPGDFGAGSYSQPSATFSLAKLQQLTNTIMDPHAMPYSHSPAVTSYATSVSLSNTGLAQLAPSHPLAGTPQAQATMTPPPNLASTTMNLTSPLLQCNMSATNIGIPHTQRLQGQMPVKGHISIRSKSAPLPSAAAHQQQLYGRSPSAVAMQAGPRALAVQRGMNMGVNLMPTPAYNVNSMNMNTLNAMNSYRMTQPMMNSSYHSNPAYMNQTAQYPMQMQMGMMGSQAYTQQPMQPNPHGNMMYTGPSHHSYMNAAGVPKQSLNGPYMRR

[3] = molecular target: Histone acetyltransferase KAT7 (Homo sapiens, UniProt O95251); experiment: as §1, with “KAT-7 Enzyme” for “KAT-5 Enzyme”, “containing KAT-7” for “containing KAT-5”, “enzyme (6” for “enzyme (9”, “and 2” for “and 0.5”, “for 120” for “for 90”
Histone acetyltransferase KAT7, sequence (O95251 whole entry): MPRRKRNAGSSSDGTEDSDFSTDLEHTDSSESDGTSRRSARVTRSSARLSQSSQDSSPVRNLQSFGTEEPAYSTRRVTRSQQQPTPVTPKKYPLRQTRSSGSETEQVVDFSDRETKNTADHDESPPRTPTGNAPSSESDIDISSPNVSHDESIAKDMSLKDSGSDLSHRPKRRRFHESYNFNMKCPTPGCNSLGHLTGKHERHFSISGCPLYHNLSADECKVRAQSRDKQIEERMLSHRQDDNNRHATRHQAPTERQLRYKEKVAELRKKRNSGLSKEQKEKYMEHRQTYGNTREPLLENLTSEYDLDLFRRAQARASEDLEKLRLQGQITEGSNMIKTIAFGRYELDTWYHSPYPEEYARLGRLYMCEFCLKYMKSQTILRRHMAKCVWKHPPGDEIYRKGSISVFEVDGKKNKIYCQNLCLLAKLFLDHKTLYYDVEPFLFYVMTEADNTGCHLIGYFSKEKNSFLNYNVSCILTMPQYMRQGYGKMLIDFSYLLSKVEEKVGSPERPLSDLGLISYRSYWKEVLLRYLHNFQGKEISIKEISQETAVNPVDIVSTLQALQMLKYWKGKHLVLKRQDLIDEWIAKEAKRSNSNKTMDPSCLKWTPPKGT

[4] = molecular target: T1, Histone acetyltransferase KAT8 (Homo sapiens, UniProt Q9H7Z6); experiment: as §1, with “KAT-8 Enzyme” for “KAT-5 Enzyme”, “containing KAT-8” for “containing KAT-5”, “enzyme (12.5” for “enzyme (9”, “and 5” for “and 0.5”
T1 sequence (Q9H7Z6 whole entry): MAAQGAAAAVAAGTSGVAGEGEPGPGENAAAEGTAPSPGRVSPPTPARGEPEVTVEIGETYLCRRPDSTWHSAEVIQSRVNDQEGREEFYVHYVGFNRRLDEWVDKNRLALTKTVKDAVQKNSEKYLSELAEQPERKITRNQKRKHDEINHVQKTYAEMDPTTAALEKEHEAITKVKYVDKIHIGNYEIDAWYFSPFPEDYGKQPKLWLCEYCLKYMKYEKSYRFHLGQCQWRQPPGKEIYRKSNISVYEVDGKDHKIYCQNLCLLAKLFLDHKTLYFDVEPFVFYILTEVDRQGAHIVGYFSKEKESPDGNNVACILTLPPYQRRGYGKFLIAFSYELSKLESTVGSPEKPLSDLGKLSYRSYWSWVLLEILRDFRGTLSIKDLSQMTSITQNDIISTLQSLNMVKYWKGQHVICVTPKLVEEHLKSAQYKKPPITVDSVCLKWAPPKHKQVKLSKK

IC50 [1] [µM] | IC50 [2] [µM] | IC50 [3] [µM] | IC50 [4] | Structure (SMILES)
< 10 | < 10 | < 10 | in the range around 30 µM | COc1ccc(S(=O)(=O)NNC(=O)c2cc(-c3cn(C)cn3)cc(Cl)c2F)c(F)c1
< 10 | < 10 | < 10 | in the range around 30 µM | CNc1cccc(S(=O)(=O)NNC(=O)c2cc(-c3cn(C)cn3)cc(Cl)c2F)c1
< 10 | < 10 | < 10 | in the range around 30 µM | COc1ccc(S(=O)(=O)NNC(=O)c2cc(-c3cn(C)cn3)cc(Cl)c2F)cc1
< 10 | < 10 | < 10 | in the range around 30 µM | COc1ccc(S(=O)(=O)NNC(=O)c2cc(-c3cn(C)cn3)cc(Cl)c2F)nc1
< 10 | < 10 | < 10 | in the range around 30 µM | Cn1cnc(-c2cc(Cl)c(F)c(C(=O)NNS(=O)(=O)c3ccccc3F)c2)c1
